# Reference: patent US10322995B2, “Substituted cyano cycloalkyl penta-2,4-dienes, cyano cycloalkyl pent-2-en-4-ynes, cyano heterocyclyl penta-2,4-dienes and cyano heterocyclyl pent-2-en-4-ynes as active substances against abiotic plant stress” (BAYER CROPSCIENCE AKTIENGESELLSCHAFT, priority 2014, dated 2019)
# Assays:
# [1] = system: Triticum aestivum (TRZAS); experiment: In vivo analyses Part C: drought stress, appearance vs stressed control plants in categories (TRZAS); design: key: 0: no positive effect; 10: slight positive effect; 20: clear positive effect; 30: strong positive effect; details: appearance vs stressed control plants after recovery phase, efficacy range of 3-4 pots
# Experimental: Seeds of monocotyledonous and dicotyledonous crop plants were sown in sandy loam in plastic or wood-fibre pots, covered with soil or sand and cultivated in a greenhouse under good growth conditions. The test plants were treated at the early leaf stage (BBCH10-BBCH13). To assure uniform water supply before commencement of stress, the potted plants were supplied with water by dam irrigation prior to substance application. The inventive compounds were first formulated as wettable powders (WP) or dissolved in a solvent mixture. The further dilution was effected with water supplemented with 0.2% wetting agent (e.g. agrotin). The finished spray liquor was sprayed onto the green parts of the plant at an equivalent water application rate of 600 I/ha. Substance application was followed immediately by stress treatment of the plants. For this purpose, the wood-fibre pots were transferred in plastic inserts in order to prevent them from subsequently drying out too quickly. Drought stress was induced by gradual drying out under the following conditions: “Day”: 14 hours with illumination at 26-30° C. “Night”: 10 hours without illumination at 18-20° C. The duration of the respective stress phases was guided mainly by the condition of the stressed control plants. It was ended (by re-irrigating and transfer to a greenhouse with good growth conditions) as soon as irreversible damage was observed on the stressed control plants. The end of the stress phase was followed by an about 4-7-day recovery phase, during which the plants were once again kept under good growth conditions in a greenhouse. The duration of the recovery phase was guided mainly by when the trial plants had attained a state which enabled visual scoring of potential effects, and was therefore variable. Once this juncture had been reached, the appearance of the plants treated with test substances was recorded in comparison to the stressed control plants by the following categories: [table] For each substance and dosage, 3-4 pots were treated and evaluated. TRZAS=Triticum aestivum
# Zea mays (ZEAMX) = experiment: In vivo analyses Part A: drought stress, visual damage scoring, efficacy EF (ZEAMX); details: spray application 250 g/ha, efficacy = reduction in damage intensity
# Experimental: Seeds of monocotyledonous and dicotyledonous crop plants were sown in sandy loam in wood-fibre pots, covered with soil or sand and cultivated in a greenhouse under good growth conditions. The test plants were treated at the early leaf stage (BBCH10-BBCH13). To assure uniform water supply before commencement of stress, the potted plants were supplied with water by dam irrigation prior to substance application. The inventive compounds, formulated in the form of wettable powders (WP), were sprayed onto the green parts of the plants as an aqueous suspension at an equivalent water application rate of 600 I/ha with addition of 0.2% wetting agent (e.g. agrotin). Substance application was followed immediately by stress treatment of the plants. For this purpose, the pots were transferred in plastic inserts in order to prevent them from subsequently drying out too quickly. Drought stress was induced by gradual drying out under the following conditions: “Day”: 14 hours with illumination at 26° C. “Night”: 10 hours without illumination at 18° C. The duration of the respective stress phases was guided mainly by the condition of the stressed control plants. […] Once this juncture was reached, the intensities of damage were scored visually in comparison to untreated, unstressed controls of the same age. The damage intensity was at first assessed in percent. […]
smiles,measurement,setting,value
CC/C(C#CC(O)(C1CCC1)C1(C#N)CC1)=C/C(=O)OC (stereo not drawn) [I.1-648],Effect (TRZAS),[1]; dosage 250 g/ha,10-20
CCC(C=CC(O)(c1ccccc1)C1(C#N)CC1)=CC(=O)O (racemic) [I.2-201],Effect (TRZAS),[1]; dosage 25 g/ha,10
CCOC(=O)/C=C(/C)C#CC(O)(C(C)C)C1(C#N)CC1 (stereo not drawn) [I.1-136],EF [%] (ZEAMX),Zea mays (ZEAMX),>5%
